Tested on: MDA-MB-231 complex spheroid viability
Assay: Anticancer human tumor MDA-MB-231/ATCC cell line growth inhibition;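 also: drug exposure lasted 7 days starting on day 3 of spheroid growth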
Settings: for IC50: curve of first compound; for viability, T/C: stronger effect = lower value
Procedure, shortened: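 Multicellular complex spheroids of tumor cells with human endothelial cells (HUVEC) and mesenchymal stem cells; the LSD1 inhibitor iadademstat was combined with standard-of-care or investigational agents. Top concentration at or near clinical Cmax, half-log dilutions; final DMSO ≤0.25%.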

[1] = second compound 0.1 µM, first compound 0.0316 µM
[2] = second compound 0.1 µM, first compound 0.1 µM
[3] = second compound 0.1 µM, first compound 0.316 µM
[4] = second compound 0.1 µM, first compound 1 µM
[5] = second compound 0.1 µM, first compound 3.16 µM
[6] = second compound 0.1 µM, first compound 10 µM
[7] = second compound 0.316 µM, first compound 0.0316 µM
[8] = second compound 0.316 µM, first compound 0.1 µM
[9] = second compound 0.316 µM, first compound 0.316 µM
[10] = second compound 0.316 µM, first compound 1 µM
[11] = second compound 0.316 µM, first compound 3.16 µM
[12] = second compound 0.316 µM, first compound 10 µM
[13] = second compound 1 µM, first compound 0.0316 µM
[14] = second compound 1 µM, first compound 0.1 µM
[15] = second compound 1 µM, first compound 0.316 µM
[16] = second compound 1 µM, first compound 1 µM
[17] = second compound 1 µM, first compound 3.16 µM
[18] = second compound 1 µM, first compound 10 µM
[19] = second compound 3.16 µM, first compound 0.0316 µM
[20] = second compound 3.16 µM, first compound 0.1 µM
[21] = second compound 3.16 µM, first compound 0.316 µM
[22] = second compound 3.16 µM, first compound 1 µM
[23] = second compound 3.16 µM, first compound 3.16 µM
[24] = second compound 3.16 µM, first compound 10 µM
[25] = second compound 10 µM, first compound 0.0316 µM
[26] = second compound 10 µM, first compound 0.1 µM
[27] = second compound 10 µM, first compound 0.316 µM
[28] = second compound 10 µM, first compound 1 µM
[29] = second compound 10 µM, first compound 3.16 µM
[30] = second compound 10 µM, first compound 10 µM

SMILES: CC(C)c1c(-c2ccccc2)nc2c(C#N)c[nH]n2c1=O + NC1CC1c1ccc(-c2cccc(O)c2)cc1
- IC50 (second compound 0.1 µM): > 10000 nM
- IC50 (second compound 0.316 µM): > 10000 nM
- IC50 (second compound 1 µM): > 10000 nM
- IC50 (second compound 3.16 µM): > 10000 nM
- IC50 (second compound 10 µM): < 31.6 nM
- viability, T/C [1]: 82.9%
- viability, T/C [2]: 84.7%
- viability, T/C [3]: 82%
- viability, T/C [4]: 85.4%
- viability, T/C [5]: 83%
- viability, T/C [6]: 82.4%
- viability, T/C [7]: 71%
- viability, T/C [8]: 69.8%
- viability, T/C [9]: 70.4%
- viability, T/C [10]: 63.1%
- viability, T/C [11]: 76.2%
- viability, T/C [12]: 62%
- viability, T/C [13]: 69.4%
- viability, T/C [14]: 69.5%
- viability, T/C [15]: 70.7%
- viability, T/C [16]: 63.6%
- viability, T/C [17]: 58.3%
- viability, T/C [18]: 52.9%
- viability, T/C [19]: 68.5%
- viability, T/C [20]: 65.1%
- viability, T/C [21]: 71%
- viability, T/C [22]: 68%
- viability, T/C [23]: 62.7%
- viability, T/C [24]: 56.5%
- viability, T/C [25]: 44.3%
- viability, T/C [26]: 42.9%
- viability, T/C [27]: 50.8%
- viability, T/C [28]: 51.5%
- viability, T/C [29]: 44.2%
- viability, T/C [30]: 45.2%

SMILES: COc1ccc([C@@H](O)c2cc(-c3ncnc4cc(N5CCOCC5)ccc34)c(F)cc2Cl)nn1 + NC1CC1c1ccc(-c2cccc(O)c2)cc1
- IC50 (second compound 0.1 µM): 361 nM
- IC50 (second compound 0.316 µM): 173 nM
- IC50 (second compound 1 µM): 82.5 nM
- IC50 (second compound 3.16 µM): 164 nM
- IC50 (second compound 10 µM): < 31.6 nM
- viability, T/C [1]: 74.9%
- viability, T/C [2]: 65.6%
- viability, T/C [3]: 53%
- viability, T/C [4]: 33.1%
- viability, T/C [5]: 17.1%
- viability, T/C [6]: 12.8%
- viability, T/C [7]: 57.1%
- viability, T/C [8]: 58.5%
- viability, T/C [9]: 42.3%
- viability, T/C [10]: 28.9%
- viability, T/C [11]: 18%
- viability, T/C [12]: 13.1%
- viability, T/C [13]: 59.3%
- viability, T/C [14]: 48.3%
- viability, T/C [15]: 36%
- viability, T/C [16]: 27.4%
- viability, T/C [17]: 16.2%
- viability, T/C [18]: 11%
- viability, T/C [19]: 58.5%
- viability, T/C [20]: 54.2%
- viability, T/C [21]: 43.7%
- viability, T/C [22]: 29.1%
- viability, T/C [23]: 14.8%
- viability, T/C [24]: 11.6%
- viability, T/C [25]: 44.8%
- viability, T/C [26]: 43.7%
- viability, T/C [27]: 31.6%
- viability, T/C [28]: 20.2%
- viability, T/C [29]: 13.5%
- viability, T/C [30]: 10.2%

SMILES: COc1cc(C2c3cc4c(cc3C(OC3OC5COC(C)OC5C(O)C3O)C3COC(=O)C23)OCO4)cc(OC)c1O (stereo not given) + NC1CCC(NC2CC2c2ccccc2)CC1
- IC50 (second compound 0.1 µM): 153 nM
- IC50 (second compound 0.316 µM): 146 nM
- IC50 (second compound 1 µM): 130 nM
- IC50 (second compound 3.16 µM): 85.3 nM
- IC50 (second compound 10 µM): 47.5 nM
- viability, T/C (second compound 0.1 µM, first compound 0.00949 µM): 93.9%
- viability, T/C (second compound 0.1 µM, first compound 0.03 µM): 79.8%
- viability, T/C (second compound 0.1 µM, first compound 0.0949 µM): 56.2%
- viability, T/C (second compound 0.1 µM, first compound 0.3 µM): 41.6%
- viability, T/C (second compound 0.1 µM, first compound 0.949 µM): 15.6%
- viability, T/C (second compound 0.1 µM, first compound 3 µM): 8.25%
- viability, T/C (second compound 0.316 µM, first compound 0.00949 µM): 98.8%
- viability, T/C (second compound 0.316 µM, first compound 0.03 µM): 79.2%
- viability, T/C (second compound 0.316 µM, first compound 0.0949 µM): 56.1%
- viability, T/C (second compound 0.316 µM, first compound 0.3 µM): 40.7%
- viability, T/C (second compound 0.316 µM, first compound 0.949 µM): 16.8%
- viability, T/C (second compound 0.316 µM, first compound 3 µM): 9.41%
- viability, T/C (second compound 1 µM, first compound 0.00949 µM): 91.1%
- viability, T/C (second compound 1 µM, first compound 0.03 µM): 73.1%
- viability, T/C (second compound 1 µM, first compound 0.0949 µM): 56%
- viability, T/C (second compound 1 µM, first compound 0.3 µM): 37.6%
- viability, T/C (second compound 1 µM, first compound 0.949 µM): 18.3%
- viability, T/C (second compound 1 µM, first compound 3 µM): 10.5%
- viability, T/C (second compound 3.16 µM, first compound 0.00949 µM): 79.6%
- viability, T/C (second compound 3.16 µM, first compound 0.03 µM): 60.5%
- viability, T/C (second compound 3.16 µM, first compound 0.0949 µM): 50.1%
- viability, T/C (second compound 3.16 µM, first compound 0.3 µM): 38.2%
- viability, T/C (second compound 3.16 µM, first compound 0.949 µM): 17.8%
- viability, T/C (second compound 3.16 µM, first compound 3 µM): 13.3%
- viability, T/C (second compound 10 µM, first compound 0.00949 µM): 59.5%
- viability, T/C (second compound 10 µM, first compound 0.03 µM): 52.3%
- viability, T/C (second compound 10 µM, first compound 0.0949 µM): 44.4%
- viability, T/C (second compound 10 µM, first compound 0.3 µM): 33%
- viability, T/C (second compound 10 µM, first compound 0.949 µM): 17.7%
- viability, T/C (second compound 10 µM, first compound 3 µM): 14.4%

SMILES: Nc1ncn(C2CC(O)C(CO)O2)c(=O)n1 (stereo not given) + NC1CCC(NC2CC2c2ccccc2)CC1
- IC50 (second compound 0.1 µM): > 1000 nM
- IC50 (second compound 0.316 µM): > 1000 nM
- IC50 (second compound 1 µM): > 1000 nM
- IC50 (second compound 3.16 µM): > 1000 nM
- IC50 (second compound 10 µM): 283 nM
- viability, T/C (second compound 0.1 µM, first compound 0.00316 µM): 94%
- viability, T/C (second compound 0.1 µM, first compound 0.01 µM): 94.1%
- viability, T/C [1]: 92.3%
- viability, T/C [2]: 81.3%
- viability, T/C [3]: 71.7%
- viability, T/C [4]: 60.4%
- viability, T/C (second compound 0.316 µM, first compound 0.00316 µM): 98.2%
- viability, T/C (second compound 0.316 µM, first compound 0.01 µM): 96.7%
- viability, T/C [7]: 92.8%
- viability, T/C [8]: 86.3%
- viability, T/C [9]: 66.8%
- viability, T/C [10]: 62.7%
- viability, T/C (second compound 1 µM, first compound 0.00316 µM): 96.9%
- viability, T/C (second compound 1 µM, first compound 0.01 µM): 94.5%
- viability, T/C [13]: 89.2%
- viability, T/C [14]: 71.5%
- viability, T/C [15]: 67.4%
- viability, T/C [16]: 63.9%
- viability, T/C (second compound 3.16 µM, first compound 0.00316 µM): 86%
- viability, T/C (second compound 3.16 µM, first compound 0.01 µM): 84.1%
- viability, T/C [19]: 79.2%
- viability, T/C [20]: 72.8%
- viability, T/C [21]: 59%
- viability, T/C [22]: 54.9%
- viability, T/C (second compound 10 µM, first compound 0.00316 µM): 67%
- viability, T/C (second compound 10 µM, first compound 0.01 µM): 65.5%
- viability, T/C [25]: 63%
- viability, T/C [26]: 55.4%
- viability, T/C [27]: 45.2%
- viability, T/C [28]: 45.1%

— PubChem BioAssay AID1918953 (Molecular Pharmacology Branch, DTP, NCI, 2023)
